{"source": "patent US9505710B2", "about": "(priority 2015, dated 2016)", "key": {"[1]": {"target": "T1, BoNT/A LC1-429 (Clostridium botulinum, UniProt P0DPI1)", "T1 sequence (P0DPI1 1-429, added parts left off)": "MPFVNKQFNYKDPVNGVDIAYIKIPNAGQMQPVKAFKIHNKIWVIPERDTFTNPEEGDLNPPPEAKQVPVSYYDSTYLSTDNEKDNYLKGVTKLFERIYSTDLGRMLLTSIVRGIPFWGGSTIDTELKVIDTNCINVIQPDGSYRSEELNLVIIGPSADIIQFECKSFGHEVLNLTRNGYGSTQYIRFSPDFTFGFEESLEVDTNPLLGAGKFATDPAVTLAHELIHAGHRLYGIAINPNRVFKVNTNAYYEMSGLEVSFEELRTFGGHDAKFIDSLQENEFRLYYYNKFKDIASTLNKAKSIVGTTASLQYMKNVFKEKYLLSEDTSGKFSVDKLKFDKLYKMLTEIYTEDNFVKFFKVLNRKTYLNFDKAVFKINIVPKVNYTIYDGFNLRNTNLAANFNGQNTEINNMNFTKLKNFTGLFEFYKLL", "assay": "biochemical"}, "[2]": {"target": "T1, BoNT/A LC1-429", "assay": "biochemical", "settings": "BoNT/A Ki (nM)"}}, "note": "Structures can show the parent of a compound that is named as a salt. Where two headings read alike, the source gives them in different places."}
{"compound": "CCO[C@H](CC(=O)NO)[C@H](Cc1ccccc1)c1ccc(F)cc1", "note": "[Example 1-1, (3R,4R)-3-ethoxy-4-(4-fluorophenyl)-N-hydroxy-5-phenylpentanamide]", "values": [{"measurement": "Ki", "setting": "[1]", "value": 38.5, "unit": "nM"}]}
{"compound": "CCO[C@H](CC(=O)NO)[C@H](Cc1cccc(Br)c1)c1ccc(F)cc1", "note": "[Example 1-2, (3R,4R)-5-(3-bromophenyl)-3-ethoxy-4-(4-fluorophenyl)-N-hydroxypentanamide]", "values": [{"measurement": "Ki", "setting": "[1]", "value": 154, "unit": "nM"}]}
{"compound": "CCO[C@H](CC(=O)NO)[C@H](Cc1ccc(Br)cc1)c1ccc(F)cc1", "note": "[Example 1-4, (3R,4R)-5-(4-bromophenyl)-3-ethoxy-4-(4-fluorophenyl)-N-hydroxypentanamide]", "values": [{"measurement": "Ki", "setting": "[1]", "value": 6.8, "unit": "nM"}]}
{"compound": "C=Cc1ccc(C[C@H](c2ccc(F)cc2)[C@@H](CC(=O)NO)OCC)cc1", "note": "[Example 1-5, (3R,4R)-3-ethoxy-4-(4-fluorophenyl)-N-hydroxy-5-(4-vinylphenyl)pentanamide]", "values": [{"measurement": "Ki", "setting": "[1]", "value": 33.5, "unit": "nM"}]}
{"compound": "CCO[C@H](CC(=O)NO)[C@H](Cc1ccc(CC)cc1)c1ccc(F)cc1", "note": "[Example 1-6, (3R,4R)-3-ethoxy-5-(4-ethylphenyl)-4-(4-fluorophenyl)-N-hydroxypentanamide]", "values": [{"measurement": "Ki", "setting": "[1]", "value": 91.5, "unit": "nM"}]}
{"compound": "CCO[C@H](CC(=O)NO)[C@H](Cc1ccc(C(=O)NC)cc1)c1ccc(F)cc1", "note": "[Example 1-7]", "values": [{"measurement": "Ki", "setting": "[1]", "value": 1220, "unit": "nM"}]}
{"compound": "CO[C@H](CC(=O)NO)[C@H](Cc1ccc(Cl)cc1C)c1ccc(F)cc1", "note": "[Example 6-5, (3R,4R)-5-(4-chloro-2-methylphenyl)-4-(4-fluorophenyl)-N-hydroxy-3-methoxypentanamide potassium salt]", "values": [{"measurement": "Ki", "setting": "[2]", "value": 3.88, "unit": "nM"}]}
{"compound": "CCO[C@H](CC(=O)NO)[C@H](Cc1ccc(Cl)cc1Cl)c1ccc(Br)cc1", "note": "[Example 6-6, (3R,4R)-4-(4-bromophenyl)-5-(2,4-dichlorophenyl)-3-ethoxy-N-hydroxypentanamide]", "values": [{"measurement": "Ki", "setting": "[2]", "value": 4.9, "unit": "nM"}]}
{"compound": "CO[C@H](CC(=O)NO)[C@H](Cc1ccc(Cl)cc1)c1ccc(C(=O)N(C)C)cc1", "note": "[Example 6-7, 4-((2R,3R)-1-(4-chlorophenyl)-5-(hydroxyamino)-3-methoxy-5-oxopentan-2-yl)-N,N-dimethylbenzamide]", "values": [{"measurement": "Ki", "setting": "[2]", "value": 26.2, "unit": "nM"}]}
{"compound": "CO[C@H](CC(=O)NO)[C@H](Cc1ccc(Cl)cc1C)c1ccc(CN2CCOCC2)cc1F", "note": "[Example 6-8, (3R,4R)-5-(4-chloro-2-methylphenyl)-4-(2-fluoro-4-(morpholinomethyl)phenyl)-N-hydroxy-3-methoxypentanamide]", "values": [{"measurement": "Ki", "setting": "[2]", "value": 45.8, "unit": "nM"}]}
{"compound": "CCO[C@H](CC(=O)NO)[C@H](Cc1ccc(Cl)cc1)c1ccc(Cl)c(N2CCOCC2)c1", "note": "[Example 6-9, (3R,4R)-4-(4-chloro-3-morpholinophenyl)-5-(4-chlorophenyl)-3-ethoxy-N-hydroxypentanamide]", "values": [{"measurement": "Ki", "setting": "[2]", "value": 5.8, "unit": "nM"}]}
{"compound": "CCO[C@H](CC(=O)NO)[C@H](Cc1ccc(Cl)cc1C)c1ccc(F)cc1F", "note": "[Example 6-10, (3R,4R)-5-(4-chloro-2-methylphenyl)-4-(2,4-difluorophenyl)-3-ethoxy-N-hydroxypentanamide]", "values": [{"measurement": "Ki", "setting": "[2]", "value": 10, "unit": "nM"}]}
{"compound": "CCO[C@H](CC(=O)NO)[C@H](Cc1ccc(Cl)cc1)c1ccc(F)cc1F", "note": "[Example 6-11, (3R,4R)-5-(4-chlorophenyl)-4-(2,4-difluorophenyl)-3-ethoxy-N-hydroxypentanamide]", "values": [{"measurement": "Ki", "setting": "[2]", "value": 10.3, "unit": "nM"}]}
{"compound": "CO[C@H](CC(=O)NO)[C@H](Cc1ccc(F)cc1F)c1ccc(F)cc1F", "note": "[Example 6-12, (3R,4R)-4,5-bis(2,4-difluorophenyl)-N-hydroxy-3-methoxypentanamide]", "values": [{"measurement": "Ki", "setting": "[2]", "value": 29.5, "unit": "nM"}]}
{"compound": "O=C(C[C@@H](OCc1ccccc1)[C@H](Cc1ccc(Cl)cc1)c1ccc(F)cc1F)NO", "note": "[Example 6-13, (3R,4R)-3-(benzyloxy)-5-(4-chlorophenyl)-4-(2,4-difluorophenyl)-N-hydroxypentanamide]", "values": [{"measurement": "Ki", "setting": "[2]", "value": 114, "unit": "nM"}]}
{"compound": "COCCO[C@H](CC(=O)NO)[C@H](Cc1ccc(Cl)cc1)c1ccc(F)cc1F", "note": "[Example 6-14, (3R,4R)-5-(4-chlorophenyl)-4-(2,4-difluorophenyl)-N-hydroxy-3-(2-methoxyethoxy)pentanamide]", "values": [{"measurement": "Ki", "setting": "[2]", "value": 55.1, "unit": "nM"}]}
{"compound": "CCCCO[C@H](CC(=O)NO)[C@H](Cc1ccc(Cl)cc1)c1ccc(F)cc1F", "note": "[Example 6-15, (3R,4R)-3-butoxy-5-(4-chlorophenyl)-4-(2,4-difluorophenyl)-N-hydroxypentanamide]", "values": [{"measurement": "Ki", "setting": "[2]", "value": 48.5, "unit": "nM"}]}
{"compound": "CCCO[C@H](CC(=O)NO)[C@H](Cc1ccc(Cl)cc1)c1ccc(F)cc1F", "note": "[Example 6-16, (3R,4R)-5-(4-chlorophenyl)-4-(2,4-difluorophenyl)-N-hydroxy-3-propoxypentanamide]", "values": [{"measurement": "Ki", "setting": "[2]", "value": 38.5, "unit": "nM"}]}
{"compound": "O=C(C[C@@H](OCC1CC1)[C@H](Cc1ccc(Cl)cc1)c1ccc(F)cc1F)NO", "note": "[Example 6-17, (3R,4R)-5-(4-chlorophenyl)-3-(cyclopropylmethoxy)-4-(2,4-difluorophenyl)-N-hydroxypentanamide]", "values": [{"measurement": "Ki", "setting": "[2]", "value": 52.4, "unit": "nM"}]}
{"compound": "O=C(C[C@@H](OCCO)[C@H](Cc1ccc(Cl)cc1)c1ccc(F)cc1F)NO", "note": "[Example 6-18, (3R,4R)-5-(4-chlorophenyl)-4-(2,4-difluorophenyl)-N-hydroxy-3-(2-hydroxyethoxy)pentanamide]", "values": [{"measurement": "Ki", "setting": "[2]", "value": 8.75, "unit": "nM"}]}
{"compound": "O=C(C[C@@H](OCCCO)[C@H](Cc1ccc(Cl)cc1)c1ccc(F)cc1F)NO", "note": "[Example 6-19, (3R,4R)-5-(4-chlorophenyl)-4-(2,4-difluorophenyl)-N-hydroxy-3-(3-hydroxypropoxy)pentanamide]", "values": [{"measurement": "Ki", "setting": "[2]", "value": 1.45, "unit": "nM"}]}
{"compound": "CO[C@H](CC(=O)NO)[C@H](Cc1ccc(Cl)cc1)c1ccc(F)cc1F", "note": "[Example 6-20, (3R,4R)-5-(4-chlorophenyl)-4-(2,4-difluorophenyl)-N-hydroxy-3-methoxypentanamide potassium salt]", "values": [{"measurement": "Ki", "setting": "[2]", "value": 8.3, "unit": "nM"}]}
{"compound": "CCO[C@H](CC(=O)NO)[C@H](Cc1ccc(Cl)cc1)c1ccc(F)cc1F", "note": "[Example 6-21, (3R,4R)-5-(4-chlorophenyl)-4-(2,4-difluorophenyl)-3-ethoxy-N-hydroxypentanamide potassium salt]", "values": [{"measurement": "Ki", "setting": "[2]", "value": 12, "unit": "nM"}]}
{"compound": "CO[C@H](CC(=O)NO)[C@H](Cc1ccc(Cl)cc1C)c1ccc(F)cc1F", "note": "[Example 6-22, (3R,4R)-5-(4-chloro-2-methylphenyl)-4-(2,4-difluorophenyl)-N-hydroxy-3-methoxypentanamide potassium salt]", "values": [{"measurement": "Ki", "setting": "[2]", "value": 6.7, "unit": "nM"}]}
{"compound": "CO[C@H](CC(=O)NO)[C@H](Cc1ccc(Cl)cc1C)c1ccc(Br)cc1F", "note": "[Example 6-23, (3R,4R)-4-(4-bromo-2-fluorophenyl)-5-(4-chloro-2-methylphenyl)-N-hydroxy-3-methoxypentanamide]", "values": [{"measurement": "Ki", "setting": "[2]", "value": 1.94, "unit": "nM"}]}
{"compound": "CCO[C@H](CC(=O)NO)[C@H](Cc1ccc(Cl)cc1)c1ccc(Cl)c(Br)c1", "note": "[Example 6-24, (3R,4R)-4-(3-bromo-4-chlorophenyl)-5-(4-chlorophenyl)-3-ethoxy-N-hydroxypentanamide]", "values": [{"measurement": "Ki", "setting": "[2]", "value": 8.1, "unit": "nM"}]}
{"compound": "CC(C)(C)OC(=O)NCCCO[C@H](CC(=O)NO)[C@H](Cc1ccc(Cl)cc1)c1ccc(F)cc1F", "note": "[Example 6-25, tert-butyl (3-(((3R,4R)-5-(4-chlorophenyl)-4-(2,4-difluorophenyl)-1-(hydroxyamino)-1-oxopentan-3-yl)oxy)propyl)carbamate]", "values": [{"measurement": "Ki", "setting": "[2]", "value": "> 150000", "unit": "nM"}]}
{"compound": "NCCCO[C@H](CC(=O)NO)[C@H](Cc1ccc(Cl)cc1)c1ccc(F)cc1F", "note": "[Example 6-26, (3R,4R)-3-(3-aminopropoxy)-5-(4-chlorophenyl)-4-(2,4-difluorophenyl)-N-hydroxypentanamide]", "values": [{"measurement": "Ki", "setting": "[2]", "value": 55000, "unit": "nM"}]}
{"compound": "O=C(O)CCO[C@H](CC(=O)NO)[C@H](Cc1ccc(Cl)cc1)c1ccc(F)cc1F", "note": "[Example 6-27, 3-(((3R,4R)-5-(4-chlorophenyl)-4-(2,4-difluorophenyl)-1-(hydroxyamino)-1-oxopentan-3-yl)oxy)propanoic acid]", "values": [{"measurement": "Ki", "setting": "[2]", "value": 361, "unit": "nM"}]}
